From patent US20240254138A1, “TRICYCLIC PYRIMIDINES AS CYCLIN-DEPENDENT KINASE 7 (CDK7) INHIBITORS” (JANSSEN PHARMACEUTICA NV, priority 2021, published 2024)
Read-outs that look alike come from different tables or passages of the source.

How the values were obtained:
[1] = test system: RNA Polymerase II Serine 5 phosphorylation (Rpb1 CTD, downstream substrate of CDK7) in A549 cells; test: Imaging-based cellular RNA PolII Ser5 phosphorylation assay in A549 cells; assay type: cell-based, human; settings: wild-type CDK7, RNA PolII Ser5 phosphorylation, averaged over all measurements; for IC50: Homo sapiens, A549, A549 cells, read-out: CDK7_A549 Wild-type CDK7 (pIC50) (converted); for CDK7_A549 Wild-type CDK7 (pIC50): A549 cells
Summary of the method: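 A549 cells, seeded 1000/well in DMEM with 1% FBS and cultured 20 h, were treated with compound for 3 h at 37 °C. Ser5-phospho-Rpb1 CTD detected by immunofluorescence imaging after fixation and methanol permeabilization; IC50 from curve fit normalized to DMSO and 10 μM reference-compound controls.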

[2] = test system: RNA Polymerase II Serine 5 phosphorylation in A549 cells overexpressing CDK7-mutant (C312S); test: Imaging-based cellular RNA PolII Ser5 phosphorylation assay in A549 cells overexpressing CDK7-mutant (C312S); assay type: cell-based, human; settings: RNA PolII Ser5 phosphorylation, averaged over all measurements; for IC50: Homo sapiens, A549, A549 cells overexpressing CDK7-mutant (C312S), read-out: CDK7_A549 mutant hCDK7(pIC50) (converted); for CDK7_A549 mutant hCDK7(pIC50): A549 cells overexpressing CDK7-mutant (C312S)
Summary of the method: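 A549 cells overexpressing CDK7 C312S (with endogenous wild-type CDK7) were treated with compound for 3 h at 37 °C in 1% FBS medium. Phospho-Rpb1 CTD Ser5 was immunostained after fixation and imaged. IC50 came from curve fit of % control, normalised to DMSO and 10 μM reference-compound controls.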

[3] = molecular target: CDK7/cyclinH/MAT1 trimeric complex (Homo sapiens, UniProt P50613); test: In vitro CDK7 assay, potency of irreversible covalent inhibitors (kinact/KI), coupled PK/LDH ADP readout at 340 nm
CDK7/cyclinH/MAT1 trimeric complex, sequence (P50613 whole entry): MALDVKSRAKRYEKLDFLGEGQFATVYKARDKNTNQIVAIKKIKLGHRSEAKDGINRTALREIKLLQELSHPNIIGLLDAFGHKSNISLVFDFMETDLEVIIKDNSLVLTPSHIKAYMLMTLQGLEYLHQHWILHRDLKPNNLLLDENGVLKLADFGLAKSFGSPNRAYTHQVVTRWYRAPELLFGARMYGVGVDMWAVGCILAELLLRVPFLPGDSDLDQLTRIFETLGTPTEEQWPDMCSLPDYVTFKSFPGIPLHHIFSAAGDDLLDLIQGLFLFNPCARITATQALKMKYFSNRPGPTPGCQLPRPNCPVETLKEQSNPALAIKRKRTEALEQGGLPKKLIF
CDK7/cyclinH/MAT1 trimeric complex, sequence (P51946 whole entry partner): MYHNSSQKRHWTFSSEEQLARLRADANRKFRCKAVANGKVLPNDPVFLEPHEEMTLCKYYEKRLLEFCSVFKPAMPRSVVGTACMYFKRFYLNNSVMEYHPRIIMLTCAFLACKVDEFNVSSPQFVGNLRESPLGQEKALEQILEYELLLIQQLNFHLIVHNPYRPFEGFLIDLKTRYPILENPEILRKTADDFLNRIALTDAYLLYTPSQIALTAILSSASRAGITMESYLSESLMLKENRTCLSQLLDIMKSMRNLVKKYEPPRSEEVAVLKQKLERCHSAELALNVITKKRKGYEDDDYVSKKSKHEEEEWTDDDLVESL
CDK7/cyclinH/MAT1 trimeric complex, sequence (P51948 whole entry partner): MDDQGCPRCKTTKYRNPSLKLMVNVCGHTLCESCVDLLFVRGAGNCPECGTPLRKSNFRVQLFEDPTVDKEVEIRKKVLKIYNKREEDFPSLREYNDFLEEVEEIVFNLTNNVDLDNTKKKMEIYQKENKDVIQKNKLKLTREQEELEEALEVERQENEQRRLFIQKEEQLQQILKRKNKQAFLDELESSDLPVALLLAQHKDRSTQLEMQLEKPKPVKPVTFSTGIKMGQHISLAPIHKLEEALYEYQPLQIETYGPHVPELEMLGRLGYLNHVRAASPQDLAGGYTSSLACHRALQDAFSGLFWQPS

[4] = CDK7 (20 nM enz.) (KI, μM), 20 nM enzyme
[5] = read-out: CDK7 (20 nM enz.) (kinact, s^−1), 20 nM enzyme
[6] = read-out: CDK7 (20 nM enz.) (kinact/KI, M^−1*s^−1), 20 nM enzyme

| IC50 [1] | IC50 [2] | Ki [3, 4] | kinact [3, 5] | kinact/KI [3, 6] | SMILES | also measured |
| --- | --- | --- | --- | --- | --- | --- |
| 145 nM | > 10000 nM | – | – | – | C=CC(=O)N1CC(N2CC[C@@H](c3ccc4c(c3)Nc3nccc(N5CCOCC5)c3CO4)[C@@H](C)C2)C1 (mixture of isomers) [Compound 70] | kinact/KI ([3]; read-out: CDK7 (20 nM enz.) (kobs/[I], M^−1*s^−1), 20 nM enzyme): 634 M⁻¹ s⁻¹ |
| 589 nM | > 10000 nM | 0.412 µM | 6.82e-05 s⁻¹ | 166 M⁻¹ s⁻¹ | C=CC(=O)N1CC(N2CC[C@@H](c3ccc4c(c3)Nc3nccc(N5CCOCC5)c3CO4)[C@H](O)C2)C1 (mixture of isomers) [Compound 72] | – |
| 93.3 nM | ~10000 nM | 0.0506 µM | 4.11e-05 s⁻¹ | 812 M⁻¹ s⁻¹ | C=CC(=O)N1CC[C@H](N2CC(c3cc(C)c4c(c3)Nc3nccc(C5CCOCC5)c3CO4)C2)[C@H](F)C1 (mixture of isomers) [Compound 200] | – |
| 89.1 nM | ~10000 nM | 0.0701 µM | 3.6e-05 s⁻¹ | 514 M⁻¹ s⁻¹ | C=CC(=O)N1CC[C@@H](N2CC(c3cc(C)c4c(c3)Nc3nccc(-c5cnn(C)c5)c3CO4)C2)[C@@H](F)C1 (mixture of isomers) [Compound 201] | – |
| 107 nM | > 10000 nM | 0.0239 µM | 3.55e-05 s⁻¹ | 1490 M⁻¹ s⁻¹ | C=CC(=O)N1CC[C@@H](N2CC(c3cc(C)c4c(c3)Nc3nccc(N5CCOCC5)c3CO4)C2)[C@@H](F)C1 (mixture of isomers) [Compound 202] | – |
| 81.3 nM | > 10000 nM | 0.0523 µM | 4.19e-05 s⁻¹ | 802 M⁻¹ s⁻¹ | C=CC(=O)N1CC[C@@H](N2CC(c3cc(C)c4c(c3)Nc3nccc(-c5cnn(C)c5)c3CO4)C2)[C@H](F)C1 (mixture of isomers) [Compound 203] | – |
| 83.2 nM | > 10000 nM | 0.0443 µM | 3.83e-05 s⁻¹ | 865 M⁻¹ s⁻¹ | C=CC(=O)N1CC[C@@H](N2CC(c3cc(C)c4c(c3)Nc3nccc(N5CCOCC5)c3CO4)C2)[C@H](F)C1 (mixture of isomers) [Compound 207] | – |
| 398 nM | > 10000 nM | 0.2 µM | 2.94e-05 s⁻¹ | 147 M⁻¹ s⁻¹ | C=CC(=O)N1CC[C@H](N2CC(c3cc4c(c(C)n3)OCc3c(-c5cnn(C)c5)ccnc3N4)C2)[C@@H](F)C1 (mixture of isomers) [Compound 212] | – |
| 251 nM | > 10000 nM | 0.267 µM | 4.9e-05 s⁻¹ | 183 M⁻¹ s⁻¹ | C=CC(=O)N1CC[C@H](N2CC(c3cc4c(c(C)n3)OCc3c(-c5cnn(C)c5)ccnc3N4)C2)[C@H](F)C1 (mixture of isomers) [Compound 213] | – |
| 631 nM | > 10000 nM | 0.114 µM | 2.74e-05 s⁻¹ | 240 M⁻¹ s⁻¹ | C=CC(=O)N1CC[C@@H](N2CC(c3cc4c(c(C)n3)OCc3c(N5CCOCC5)ccnc3N4)C2)[C@H](F)C1 (mixture of isomers) [Compound 220] | – |
| – | – | 0.67 µM | 6.76e-05 s⁻¹ | – | C=CC(=O)N1CC(N2CC[C@H](c3ccc4c(c3)Nc3nccc(N5CCOCC5)c3CO4)[C@@H](F)C2)C1 (mixture of isomers) [Compound 226] | CDK7_A549 Wild-type CDK7 (pIC50) [1]: 6.55; CDK7_A549 mutant hCDK7(pIC50) [2]: <5; CDK7 (20 nM enz.) (kinact/KI, M^−1*s^−1) ([3]; 20 nM enzyme): 100.867 M⁻¹ s⁻¹ |
| 178 nM | > 10000 nM | 0.129 µM | 6.25e-05 s⁻¹ | 486 M⁻¹ s⁻¹ | C=CC(=O)N1CC(N2CC[C@@H](c3ccc4c(c3)Nc3nccc(N5CCOCC5)c3CO4)[C@@H](O)C2)C1 (mixture of isomers) [Compound 228] | – |
| 162 nM | 7410 nM | 0.084 µM | 3.05e-05 s⁻¹ | 362 M⁻¹ s⁻¹ | C=CC(=O)N1CC[C@H](N2CC(c3cc4c(c(C)n3)OCc3c(C5CCOCC5)ccnc3N4)C2)[C@H](F)C1 (mixture of isomers) [Compound 236] | – |
| 316 nM | > 10000 nM | 0.129 µM | 2.7e-05 s⁻¹ | 209 M⁻¹ s⁻¹ | C=CC(=O)N1CC[C@H](N2CC(c3cc4c(c(C)n3)OCc3c(C5CCOCC5)ccnc3N4)C2)[C@@H](F)C1 (mixture of isomers) [Compound 242] | – |
| 120 nM | 5890 nM | – | – | 397 M⁻¹ s⁻¹ | CC#CC(=O)N1CCC(N2CC(c3cc(C#N)c4c(c3)Nc3nccc(N5CCOCC5)c3[C@@H](C)O4)C2)C1 (mixture of isomers) [Compound 493] | – |
| 4070 nM | > 10000 nM | – | – | 3.14 M⁻¹ s⁻¹ | CC#CC(=O)N1CCC(N2CC(c3cc(C#N)c4c(c3)Nc3nccc(N5CCOCC5)c3[C@H](C)O4)C2)C1 (mixture of isomers) [Compound 494] | – |
| 1620 nM | > 10000 nM | – | – | – | C=CC(=O)N1CC[C@H]2CN(c3ccc4c(c3)Nc3nccc(N5CCOCC5)c3CO4)CC[C@@H]21 (racemic) [Compound 48] | Ki ([3]; CDK7 (KI(μM)), […], 1 mM ATP, room temperature, averaged values over all measurements): 0.325 µM; kinact ([3]; read-out: CDK7 (kinact, s^−1), kinact = maximal rate of inactivation, 1 mM ATP, room temperature, averaged values over all measurements): 4.98e-05 s⁻¹; kinact/KI ([3]; read-out: CDK7 (kinact/KI, M^−1*s^−1), potency of irreversible covalent inhibitors, 1 mM ATP, room temperature, averaged values over all measurements): 153 M⁻¹ s⁻¹ |
| 123 nM | > 10000 nM | 0.0404 µM | 6.96e-05 s⁻¹ | 1720 M⁻¹ s⁻¹ | C#CCCN(C)C/C=C/C(=O)N1CC(N2CCC(c3ccc4c(c3)Nc3nccc(N5CCOCC5)c3C(C)O4)CC2)C1 (racemic) [Compound 143] | – |
| > 10000 nM | > 10000 nM | – | – | – | C=CC(=O)N1CCC(N2CC(c3cc4c(cn3)OC(C)(C)c3c(-c5cnn(C)c5)ccnc3N4)C2)CC1 [Compound 320] | – |

| IC50 [1] | IC50 [2] | Ki [3, 4] | kinact [3, 5] | kinact/KI [3, 6] | SMILES | also measured |
| --- | --- | --- | --- | --- | --- | --- |
| 9330 nM | 8710 nM | – | – | – | CC(=O)N1CCC(N2CC(c3cc4c(c(C)n3)OCc3c(-c5cnn(C)c5)ccnc3N4)C2)CC1 [Compound 321] | – |
| 191 nM | > 10000 nM | – | – | – | CC#CC(=O)N1CC(n2cc(-c3cc4c(c(C)n3)OCc3c(N5CCOCC5)ccnc3N4)cn2)C1 [Compound 346] | – |
| 372 nM | 6920 nM | – | – | – | CC#CC(=O)N1CCC(n2cc(-c3cc(C)c4c(c3)Nc3nccc(N5CCOCC5)c3CO4)cn2)CC1 [Compound 381] | – |
| > 10000 nM | > 10000 nM | – | – | – | C=CC(=O)N1CC(N2CCC(c3cc4c(c(P(C)(C)=O)n3)OCc3c(N5CCOCC5)ccnc3N4)CC2)C1 [Compound 383] | – |
| 214 nM | 8710 nM | – | – | – | C=CC(=O)N1CCC(n2cc(-c3cc4c(c(C)n3)OCc3c(N5CCOCC5)ccnc3N4)cn2)CC1 [Compound 390] | – |
| 1910 nM | 7760 nM | – | – | – | C=CC(=O)N1CCC(Oc2cc(-c3cc4c(c(C)n3)OCc3c(N5CCOCC5)ccnc3N4)ccn2)CC1 [Compound 407] | – |
| > 10000 nM | > 10000 nM | – | – | – | C=CC(=O)N1CCC(n2ccc(-c3ccc4c(c3)OCc3c(N5CCOCC5)ccnc3N4)cc2=O)CC1 [Compound 408] | – |
| 1450 nM | 7080 nM | – | – | – | CC#CC(=O)N1CCC(Oc2cc(-c3cc4c(c(C)n3)OCc3c(N5CCOCC5)ccnc3N4)ccn2)CC1 [Compound 409] | – |
| 9770 nM | > 10000 nM | – | – | – | CC#CC(=O)N1CCC(n2ccc(-c3ccc4c(c3)OCc3c(N5CCOCC5)ccnc3N4)cc2=O)CC1 [Compound 412] | – |
| > 10000 nM | > 10000 nM | – | – | – | Cc1nc(C2CCN(C3CN(C(=O)/C=C/C(=O)O)C3)CC2)cc2c1OCc1c(-c3cnn(C)c3)ccnc1N2 [Compound 432] | – |
| 302 nM | > 10000 nM | – | – | – | CC#CC(=O)N1CCC(C2CN(c3cc4c(c(C)n3)OCc3c(N5CCOCC5)ccnc3N4)C2)CC1 [Compound 451] | – |
| > 10000 nM | > 10000 nM | – | – | – | C=CC(=O)N1CCC2(CC1)CCN(c1cc3c(c(C)n1)OCc1c(-c4cnn(C)c4)ccnc1N3)CC2 [Compound 479] | – |
| 115 nM | 5620 nM | – | – | – | CC#CC(=O)N1CCC(N2CC(c3cc4c(c(C#N)n3)OC(C)c3c(N5CCOCC5)ccnc3N4)C2)CC1 (centres unmarked) [Compound 511] | – |
| 324 nM | > 10000 nM | – | – | – | CC#CC(=O)N1CC(N2CCC(c3cc4c(c(C#N)n3)OC(C)c3c(N5CCOCC5)ccnc3N4)CC2)C1 (centres unmarked) [Compound 514] | – |
| > 10000 nM | > 10000 nM | – | – | – | C/C=C/C(=O)N1CC(N2CCC(c3cc4c(c(C)n3)OCc3c(-c5cnn(C)c5)ccnc3N4)CC2)C1 [Compound 537] | – |
| – | – | – | – | – | CC#CC(=O)N1CC(N2CCC(c3cc4c(c(C)n3)OCc3c(-c5cnn(C)c5)ccnc3N4)CC2)C1 [Compound 538] | CDK7_A549 Wild-type CDK7 (pIC50) [1]: 6.49; CDK7_A549 mutant hCDK7(pIC50) [2]: <5 |
| 2750 nM | > 10000 nM | – | – | – | CC#CC(=O)N1CCC(N2CC(c3nc(C)c4c(n3)Nc3nccc(N5CCOCC5)c3[C@@H](C)O4)C2)CC1 [Compound 546] | – |
| > 10000 nM | > 10000 nM | – | – | – | CC#CC(=O)N1CCC(N2CC(c3nc(C)c4c(n3)Nc3nccc(N5CCOCC5)c3[C@H](C)O4)C2)CC1 [Compound 547] | – |
